Experiments:
[1] = mn = molality of the nth substance listed, in mol/kg; conditions: 298.15 K, 100 kPa, Liquid, Falling or rolling sphere viscometry
[2] = for mass density: 100 kPa, Liquid, Vibrating tube method; for Triple point temperature: DSC
[3] = excess molar enthalpy (molar enthalpy of mixing); xn = mol fraction of the nth substance listed; conditions: 100 kPa, Liquid, Flow calorimetry
[4] = xn = mol fraction of the nth substance listed; conditions: 100 kPa, Liquid, Vibrating tube method
[5] = Molar enthalpy of transition or fusion; conditions: DSC

CCCCn1cc[n+](C)c1.O=S(=O)([O-])C(F)(F)C(F)F + O
[1]
Conditions	viscosity [mPa·s]
m1 = 0.0216	0.9005
m1 = 0.02818	0.9042
m1 = 0.05086	0.9161
m1 = 0.06272	0.9229
m1 = 0.0705	0.9269
m1 = 0.0811	0.9328

CCCC[N+]1(C)CCCC1.N#CN=C=[N-] [1-butyl-1-methylpyrrolidinium dicyanamide]
[2]
Conditions	mass density [kg/m3]
288.15 K	1019.08
293.15 K	1016.25
298.15 K	1013.43
303.15 K	1010.62
308.15 K	1007.83
313.15 K	1005.05
318.15 K	1002.29

CCCC[N+]1(C)CCCC1.O=S(=O)([O-])C(F)(F)C(F)F + O
[1]
Conditions	viscosity [mPa·s]
m1 = 0.01177	0.8996
m1 = 0.02018	0.9033
m1 = 0.02912	0.9095
m1 = 0.05104	0.9233
m1 = 0.07113	0.934
m1 = 0.09124	0.9463

CCCC[N+]1(C)CCCC1.N#CN=C=[N-] [1-butyl-1-methylpyrrolidinium dicyanamide] + O
[1]
Conditions	viscosity [mPa·s]
m1 = 0.01007	0.8956
m1 = 0.01538	0.8983
m1 = 0.03088	0.9043
m1 = 0.04839	0.9119
m1 = 0.0703	0.921
m1 = 0.09073	0.9308

Conditions	excess molar enthalpy, [3] [kcal/mol]	mass density, [4] [kg/m3]
288.15 K, x1 = 0.000366	-0.00048	999.262
288.15 K, x1 = 0.000732	-0.000918	999.415
288.15 K, x1 = 0.001097	-0.00134	999.558
288.15 K, x1 = 0.001462	-0.00175	999.693
288.15 K, x1 = 0.001827	-0.00212	999.827
288.15 K, x1 = 0.002192	–	999.945
298.15 K, x1 = 0.000366	-0.00027	997.161
298.15 K, x1 = 0.000732	-0.000516	997.266
298.15 K, x1 = 0.001098	-0.000743	997.365
298.15 K, x1 = 0.001463	-0.000963	997.458
298.15 K, x1 = 0.001828	-0.00117	997.547
298.15 K, x1 = 0.002193	-0.00138	997.632
308.15 K, x1 = 0.000366	-6.21e-05	994.108
308.15 K, x1 = 0.000731	-0.0001	994.175
308.15 K, x1 = 0.001097	-0.000127	994.237
308.15 K, x1 = 0.001462	-0.00016	994.294
308.15 K, x1 = 0.001827	-0.000201	994.349
308.15 K, x1 = 0.002192	-0.00022	994.4
318.15 K, x1 = 0.000366	0.000141	990.258
318.15 K, x1 = 0.000731	0.000301	990.295
318.15 K, x1 = 0.001097	0.000471	990.326
318.15 K, x1 = 0.001462	0.000643	990.353
318.15 K, x1 = 0.001826	0.00082	990.377
318.15 K, x1 = 0.002192	0.000997	990.398

CCCCn1cc[n+](C)c1.N#CN=C=[N-] [1-butyl-3-methylimidazolium dicyanamide]
[2]
Conditions	mass density [kg/m3]
288.15 K	1065.64
293.15 K	1062.04
298.15 K	1059.22
303.15 K	1056.04
308.15 K	1052.88
313.15 K	1049.74
318.15 K	1046.63
323.15 K	1043.5
328.15 K	1040.4
333.15 K	1037.38

CCCC[N+]1(C)CCCC1.O=S(=O)([O-])C(F)(F)C(F)F
Conditions	Molar enthalpy of transition or fusion, [5] [kcal/mol]	Triple point temperature, [2] [K]
Crystal 1	2.61	318.5
Crystal 2	3.01	279.3

CCCCn1cc[n+](C)c1.O=S(=O)([O-])C(F)(F)C(F)F
[2]
Conditions	mass density [kg/m3]
288.15 K	1355.49
293.15 K	1351.46
298.15 K	1347.31
303.15 K	1343.19
308.15 K	1339.08
313.15 K	1335.01
318.15 K	1330.9
323.15 K	1326.84
328.15 K	1322.8
333.15 K	1318.77

CCCCn1cc[n+](C)c1.N#CN=C=[N-] [1-butyl-3-methylimidazolium dicyanamide] + O
[1]
Conditions	viscosity [mPa·s]
m1 = 0.01061	0.8936
m1 = 0.01522	0.895
m1 = 0.03084	0.901
m1 = 0.05091	0.9086
m1 = 0.06874	0.9157
m1 = 0.08186	0.9219

Conditions	excess molar enthalpy, [3] [kcal/mol]	mass density, [4] [kg/m3]
288.15 K, x1 = 0.000389	5.5e-05	999.45
288.15 K, x1 = 0.000777	0.000139	999.8
288.15 K, x1 = 0.001165	0.000232	1000.14
288.15 K, x1 = 0.001552	0.000335	1000.47
288.15 K, x1 = 0.00194	0.000437	1000.79
288.15 K, x1 = 0.002327	0.000547	1001.11
298.15 K, x1 = 0.000388	0.000198	997.35
298.15 K, x1 = 0.000777	0.000428	997.65
298.15 K, x1 = 0.001165	0.000664	997.93
298.15 K, x1 = 0.001552	0.000903	998.21
298.15 K, x1 = 0.001939	0.00115	998.48
298.15 K, x1 = 0.002327	0.0014	998.75
308.15 K, x1 = 0.000389	0.000351	994.29
308.15 K, x1 = 0.000777	0.000739	994.54
308.15 K, x1 = 0.001165	0.00113	994.79
308.15 K, x1 = 0.001552	0.00152	995.02
308.15 K, x1 = 0.00194	0.0019	995.25
308.15 K, x1 = 0.002327	0.0023	995.48
318.15 K, x1 = 0.000388	0.000511	990.43
318.15 K, x1 = 0.000777	0.00106	990.65
318.15 K, x1 = 0.001165	0.00161	990.85
318.15 K, x1 = 0.001552	0.00215	991.06
318.15 K, x1 = 0.00194	0.00269	991.25
318.15 K, x1 = 0.002328	0.00323	991.45
